{"source": "paper PMC5843908", "about": "“Detection of PRMT1 inhibitors with stopped flow fluorescence” (Signal Transduction and Targeted Therapy, 2018)", "key": {"PRMT1 [1]": {"biological_target": "T1, PRMT1 (Homo sapiens, UniProt Q99873)", "T1 sequence (Q99873 29-371)": "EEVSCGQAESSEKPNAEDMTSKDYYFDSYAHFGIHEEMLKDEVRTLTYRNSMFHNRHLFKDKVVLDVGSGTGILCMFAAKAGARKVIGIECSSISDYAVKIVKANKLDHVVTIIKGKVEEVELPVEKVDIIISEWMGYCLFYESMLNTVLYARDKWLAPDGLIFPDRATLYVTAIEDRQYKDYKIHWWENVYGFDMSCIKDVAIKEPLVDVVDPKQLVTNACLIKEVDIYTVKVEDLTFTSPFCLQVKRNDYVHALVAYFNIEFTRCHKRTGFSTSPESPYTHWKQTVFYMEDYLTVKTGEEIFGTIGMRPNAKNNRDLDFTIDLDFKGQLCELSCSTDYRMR", "test": "Stopped flow fluorescence assay of PRMT1 inhibition ([PRMT1] 0.2 µM, [SAM] 3.5 µM, [H4FL] 0.4 µM);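 further: Stopped-flow traces of fluorescent H4FL peptide quenched on binding PRMT1 and restored on release, recorded 900 s, averaged over repeated drives and fit to a double-exponential model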", "type": "biochemical", "description": "To obtain the IC50 of a specific inhibitor, the relative activities of the enzyme in presence of different concentrations of the inhibitor are required (equation 1).[37] […] By adding different concentrations of the inhibitor to the reaction mixture, the relative activity of the enzyme can be obtained by normalizing K to the reaction rate without the inhibitor, and then calculate the IC50 value using equation 1. In our stopped flow fluorescence assay, the reaction rate of Phase I and Phase II can be obtained by approximating and deriving the double-exponential equation (equation 2). In Phase I, during a very short period of time (where t is small), the curve is nearly linear, and the exponential equation can be approximately described as F1 = a · (−k1) · t. Therefore, the derivation of F1 equals –k1∙a, which is the slope of Phase I. Similarly, the curve of Phase II at early stage can be approximately described as F2 = b · (−k2) · t. This derivation of F2 equals –k2∙b, which is the slope of Phase II. The slopes at various inhibitor concentrations, normalized to the slope in the absence of inhibitor, can be used to obtain the corresponding relative enzyme activity from which the potency value (IC50) of the inhibitor can be calculated with equation 1.\n(§1) In a stopped flow fluorescence assay, the binding of H4FL to PRMT1 (or the PRMT1—cofactor complex) quenches the peptide fluorescence, while release of the peptide restores the fluorescence. […] The widths of the entrance and exit slits of the monochromator were set to 0.5 mm. An equal volume of samples from two syringes was driven into the observation cell for mixing measurements. The H4FL concentration in all experiments was 0.4 μM. […] The fluorescent signal was recorded for 900 seconds, with 10,000 data points in total. Data from four to six drives were collected and averaged for each curve.\nAfter averaging the shot data, the association time courses were fitted to a double-exponential function (equation 2) using GraphPad Prism (CA, USA). […] F is the fluorescence intensity at time t, k1, and k2 are the rate constants for Phase I and Phase II, a is the amplitude of the fluorescence change for k1, and b is the amplitude of the fluorescence change for k2. Simulation curves based on the values of a, b, k1, and k2 at fixed c = 1 were produced using Matlab. The IC50 value of inhibitors is determined by equation 1 using GraphPad Prism (CA, USA)."}, "CARM1": {"tested_on": "CARM1", "parameters": "method as in PMID 24564570", "conditions": "cited from earlier work"}, "PRMT6": {"tested_on": "PRMT6", "parameters": "method as in PMID 24564570", "conditions": "cited from earlier work"}, "PRMT5": {"tested_on": "PRMT5", "parameters": "method as in PMID 24564570", "conditions": "cited from earlier work"}, "PRMT1 [2]": {"biological_target": "T1, PRMT1", "description": "We plotted the values of a · k1 or −b · k2 against the SAM concentration (Fig. 3c, d).\nas §1\nAfter averaging the shot data, the association time courses were fitted to a double-exponential function (equation 2) using GraphPad Prism (CA, USA). […] F is the fluorescence intensity at time t, k1, and k2 are the rate constants for Phase I and Phase II, a is the amplitude of the fluorescence change for k1, and b is the amplitude of the fluorescence change for k2. Simulation curves based on the values of a, b, k1, and k2 at fixed c = 1 were produced using Matlab."}, "PRMT1 [3]": {"tested_on": "PRMT1", "conditions": "cited from earlier work"}, "PRMT1 [4]": {"tested_on": "PRMT1", "parameters": "method as in earlier work", "conditions": "binary binding to PRMT1; ref 2 (supplement; Feng et al. 2011); cited from earlier work"}}, "note": "Where two headings read alike, the source gives them in different places.", "data": [{"molecule": "N=C(N)c1ccc(-c2ccc(-c3ccc(C(=N)N)cc3)o2)cc1", "note": "[DB75, furamidine]", "values": [{"measurement": "mechanism of inhibition suggested by Phase I/Phase II pattern", "setting": "PRMT1 [1]", "result": "substrate-competitive inhibitor"}, {"measurement": "-b·k2 (slope of Phase II)", "setting": "PRMT1 [1]; [DB75] 2.5 µM", "result": "0.0008427 ± 1.61e-06", "unit": "s⁻¹"}, {"measurement": "a (amplitude, Phase I)", "setting": "PRMT1 [1]; [DB75] 2.5 µM", "result": "0.1608 ± 3.86E-04"}, {"measurement": "a·k1 (slope of Phase I)", "setting": "PRMT1 [1]; [DB75] 2.5 µM", "result": "0.00951 ± 4.83e-05", "unit": "s⁻¹"}, {"measurement": "b (amplitude, Phase II)", "setting": "PRMT1 [1]; [DB75] 2.5 µM", "result": "-0.203 ± 1.66E-04"}, {"measurement": "k1 (rate constant, Phase I)", "setting": "PRMT1 [1]; [DB75] 2.5 µM", "result": "0.05913 ± 2.65E-04", "unit": "s^-1"}, {"measurement": "k2 (rate constant, Phase II)", "setting": "PRMT1 [1]; [DB75] 2.5 µM", "result": "0.004151 ± 7.18E-06", "unit": "s^-1"}, {"measurement": "-b·k2 (slope of Phase II)", "setting": "PRMT1 [1]; [DB75] 5 µM", "result": "0.0005995 ± 1.19e-06", "unit": "s⁻¹"}, {"measurement": "a (amplitude, Phase I)", "setting": "PRMT1 [1]; [DB75] 5 µM", "result": "0.1114 ± 3.10E-04"}, {"measurement": "a·k1 (slope of Phase I)", "setting": "PRMT1 [1]; [DB75] 5 µM", "result": "0.00741 ± 4.25e-05", "unit": "s⁻¹"}, {"measurement": "b (amplitude, Phase II)", "setting": "PRMT1 [1]; [DB75] 5 µM", "result": "-0.14 ± 1.20E-04"}, {"measurement": "k1 (rate constant, Phase I)", "setting": "PRMT1 [1]; [DB75] 5 µM", "result": "0.06653 ± 3.34E-04", "unit": "s^-1"}, {"measurement": "k2 (rate constant, Phase II)", "setting": "PRMT1 [1]; [DB75] 5 µM", "result": "0.004282 ± 7.68E-06", "unit": "s^-1"}, {"measurement": "-b·k2 (slope of Phase II)", "setting": "PRMT1 [1]; [DB75] 7.5 µM", "result": "0.0005125 ± 1.42e-06", "unit": "s⁻¹"}, {"measurement": "a (amplitude, Phase I)", "setting": "PRMT1 [1]; [DB75] 7.5 µM", "result": "0.1285 ± 3.57E-04"}, {"measurement": "a·k1 (slope of Phase I)", "setting": "PRMT1 [1]; [DB75] 7.5 µM", "result": "0.00616 ± 3.66e-05", "unit": "s⁻¹"}, {"measurement": "b (amplitude, Phase II)", "setting": "PRMT1 [1]; [DB75] 7.5 µM", "result": "-0.1789 ± 1.33E-04"}, {"measurement": "k1 (rate constant, Phase I)", "setting": "PRMT1 [1]; [DB75] 7.5 µM", "result": "0.04791 ± 2.52E-04", "unit": "s^-1"}, {"measurement": "k2 (rate constant, Phase II)", "setting": "PRMT1 [1]; [DB75] 7.5 µM", "result": "0.002865 ± 7.66E-06", "unit": "s^-1"}, {"measurement": "-b·k2 (slope of Phase II)", "setting": "PRMT1 [1]; [DB75] 10 µM", "result": "0.0003506 ± 2.59e-06", "unit": "s⁻¹"}, {"measurement": "a (amplitude, Phase I)", "setting": "PRMT1 [1]; [DB75] 10 µM", "result": "0.06466 ± 3.90E-04"}, {"measurement": "a·k1 (slope of Phase I)", "setting": "PRMT1 [1]; [DB75] 10 µM", "result": "0.0024 ± 3.23e-05", "unit": "s⁻¹"}, {"measurement": "b (amplitude, Phase II)", "setting": "PRMT1 [1]; [DB75] 10 µM", "result": "-0.07628 ± 3.14E-04"}, {"measurement": "k1 (rate constant, Phase I)", "setting": "PRMT1 [1]; [DB75] 10 µM", "result": "0.03706 ± 4.47E-04", "unit": "s^-1"}, {"measurement": "k2 (rate constant, Phase II)", "setting": "PRMT1 [1]; [DB75] 10 µM", "result": "0.004596 ± 2.82E-05", "unit": "s^-1"}, {"measurement": "-b·k2 (slope of Phase II)", "setting": "PRMT1 [1]; [DB75] 20 µM", "result": "0.00011 ± 4.39e-06", "unit": "s⁻¹"}, {"measurement": "a (amplitude, Phase I)", "setting": "PRMT1 [1]; [DB75] 20 µM", "result": "0.02855 ± 5.16E-04"}, {"measurement": "a·k1 (slope of Phase I)", "setting": "PRMT1 [1]; [DB75] 20 µM", "result": "0.000854 ± 2.84e-05", "unit": "s⁻¹"}, {"measurement": "b (amplitude, Phase II)", "setting": "PRMT1 [1]; [DB75] 20 µM", "result": "-0.01837 ± 5.38E-04"}, {"measurement": "k1 (rate constant, Phase I)", "setting": "PRMT1 [1]; [DB75] 20 µM", "result": "0.02992 ± 8.36E-04", "unit": "s^-1"}, {"measurement": "k2 (rate constant, Phase II)", "setting": "PRMT1 [1]; [DB75] 20 µM", "result": "0.005985 ± 1.62E-04", "unit": "s^-1"}, {"measurement": "-b·k2 (slope of Phase II)", "setting": "PRMT1 [1]; [DB75] 40 µM", "result": 0, "unit": "s⁻¹"}, {"measurement": "a (amplitude, Phase I)", "setting": "PRMT1 [1]; [DB75] 40 µM", "result": "0.009937 ± 5.73E-04"}, {"measurement": "a·k1 (slope of Phase I)", "setting": "PRMT1 [1]; [DB75] 40 µM", "result": "0.00133 ± 0.000128", "unit": "s⁻¹"}, {"measurement": "k1 (rate constant, Phase I)", "setting": "PRMT1 [1]; [DB75] 40 µM", "result": "0.1335 ± 1.03E-02", "unit": "s^-1"}, {"measurement": "inhibition of Phase II", "setting": "PRMT1 [1]; [DB75] above 10 µM", "result": "almost fully inhibited"}, {"measurement": "inhibition selectivity for PRMT1 over CARM1", "setting": "CARM1", "result": 42, "unit": "fold"}, {"measurement": "inhibition selectivity for PRMT1 over PRMT6", "setting": "PRMT6", "result": 30, "unit": "fold"}, {"measurement": "inhibition selectivity for PRMT1 over PRMT5", "setting": "PRMT5", "result": "more than 15 fold"}]}, {"molecule": "C[S+](CC[C@H](N)C(=O)[O-])C[C@H]1O[C@@H](n2cnc3c(N)ncnc32)[C@H](O)[C@@H]1O", "note": "(some centres unmarked) [SAM, S-adenosylmethionine]", "values": [{"measurement": "-b·k2 (slope of Phase II)", "setting": "PRMT1 [2]; [SAM] 1.5 µM", "result": "0.0002 ± 9.72e-07", "unit": "s⁻¹"}, {"measurement": "a (amplitude, Phase I)", "setting": "PRMT1 [2]; [SAM] 1.5 µM", "result": "0.0482 ± 2.31E-04"}, {"measurement": "a·k1 (slope of Phase I)", "setting": "PRMT1 [2]; [SAM] 1.5 µM", "result": "0.00212 ± 2.2e-05", "unit": "s⁻¹"}, {"measurement": "b (amplitude, Phase II)", "setting": "PRMT1 [2]; [SAM] 1.5 µM", "result": "-0.07363 ± 8.97E-05"}, {"measurement": "k1 (rate constant, Phase I)", "setting": "PRMT1 [2]; [SAM] 1.5 µM", "result": "0.04402 ± 4.06E-04", "unit": "s^-1"}, {"measurement": "k2 (rate constant, Phase II)", "setting": "PRMT1 [2]; [SAM] 1.5 µM", "result": "0.002713 ± 1.28E-05", "unit": "s^-1"}, {"measurement": "-b·k2 (slope of Phase II)", "setting": "PRMT1 [2]; [SAM] 3.5 µM", "result": "0.000878 ± 2.58e-06", "unit": "s⁻¹"}, {"measurement": "a (amplitude, Phase I)", "setting": "PRMT1 [2]; [SAM] 3.5 µM", "result": "0.0846 ± 3.83E-04"}, {"measurement": "a·k1 (slope of Phase I)", "setting": "PRMT1 [2]; [SAM] 3.5 µM", "result": "0.00678 ± 6.58e-05", "unit": "s⁻¹"}, {"measurement": "b (amplitude, Phase II)", "setting": "PRMT1 [2]; [SAM] 3.5 µM", "result": "-0.1161 ± 2.14E-04"}, {"measurement": "k1 (rate constant, Phase I)", "setting": "PRMT1 [2]; [SAM] 3.5 µM", "result": "0.08016 ± 6.88E-04", "unit": "s^-1"}, {"measurement": "k2 (rate constant, Phase II)", "setting": "PRMT1 [2]; [SAM] 3.5 µM", "result": "0.007565 ± 1.73E-05", "unit": "s^-1"}, {"measurement": "-b·k2 (slope of Phase II)", "setting": "PRMT1 [2]; [SAM] 7.5 µM", "result": "0.00141 ± 4.46e-06", "unit": "s⁻¹"}, {"measurement": "a (amplitude, Phase I)", "setting": "PRMT1 [2]; [SAM] 7.5 µM", "result": "0.1529 ± 1.79E-03"}, {"measurement": "a·k1 (slope of Phase I)", "setting": "PRMT1 [2]; [SAM] 7.5 µM", "result": "0.0272 ± 0.000547", "unit": "s⁻¹"}, {"measurement": "b (amplitude, Phase II)", "setting": "PRMT1 [2]; [SAM] 7.5 µM", "result": "-0.2054 ± 3.40E-04"}, {"measurement": "k1 (rate constant, Phase I)", "setting": "PRMT1 [2]; [SAM] 7.5 µM", "result": "0.1778 ± 2.91E-03", "unit": "s^-1"}, {"measurement": "k2 (rate constant, Phase II)", "setting": "PRMT1 [2]; [SAM] 7.5 µM", "result": "0.006848 ± 1.85E-05", "unit": "s^-1"}, {"measurement": "-b·k2 (slope of Phase II)", "setting": "PRMT1 [2]; [SAM] 15 µM", "result": "0.00313 ± 1.01e-05", "unit": "s⁻¹"}, {"measurement": "a (amplitude, Phase I)", "setting": "PRMT1 [2]; [SAM] 15 µM", "result": "0.1992 ± 2.65E-03"}, {"measurement": "a·k1 (slope of Phase I)", "setting": "PRMT1 [2]; [SAM] 15 µM", "result": "0.0493 ± 0.00109", "unit": "s⁻¹"}, {"measurement": "b (amplitude, Phase II)", "setting": "PRMT1 [2]; [SAM] 15 µM", "result": "-0.2664 ± 5.21E-04"}, {"measurement": "k1 (rate constant, Phase I)", "setting": "PRMT1 [2]; [SAM] 15 µM", "result": "0.2476 ± 4.40E-03", "unit": "s^-1"}, {"measurement": "k2 (rate constant, Phase II)", "setting": "PRMT1 [2]; [SAM] 15 µM", "result": "0.01175 ± 3.03E-05", "unit": "s^-1"}, {"measurement": "Km", "setting": "PRMT1 [3]; read-out: Km of SAM on H4FL", "result": "3100 ± 460", "unit": "nM"}]}, {"molecule": "acetyl-SGRGKGGKGK(FL)GKGGAKRHRK [H4FL]", "values": [{"measurement": "kcat", "setting": "PRMT1 [3]; PRMT1 catalysis", "result": "0.43 ± 0.01", "unit": "min⁻¹"}, {"measurement": "Km", "setting": "PRMT1 [3]; PRMT1 catalysis, read-out: Km of peptide substrate", "result": "500 ± 50", "unit": "nM"}, {"measurement": "koff", "setting": "PRMT1 [4]", "result": 333, "unit": "s⁻¹"}, {"measurement": "kon", "setting": "PRMT1 [4]", "result": 40, "unit": "µM⁻¹ s⁻¹"}]}]}
